Results on one compound are retold here after patent publication US20240383950A1, “RECOMBINANT GLYCAN BINDING PROTEINS AND ITS USE” (UNICHEM LABORATORIES LIMITED, priority 2021, published 2024).

The nature of the data set: MTS-PMS cytotoxicity bioassay, MDA-MB 231. The following applies: human, MDA-MB 231 breast cancer cells.

Structures are written as SMILES.

Text: 5000 cells/well were used for testing.
The drug Doxorubicin was used as system suitability (SST) reference.

As for `COc1cccc2c1C(=O)c1c(O)c3c(c(O)c1C2=O)C[C@@](O)(C(=O)CO)C[C@@H]3O[C@H]1C[C@H](N)[C@H](O)[C@H](C)O1` [Doxorubicin], the cytotoxicity at 100 μm was found to be 45%.
